Laboratory results as given in patent US10681908B2, “Molecules having pesticidal utility, and intermediates, compositions, and processes, related thereto” (Dow AgroSciences LLC, priority 2016, dated 2020).

Tests used:
Assay type in all cases: in vivo
[1] = system: Yellow Fever Mosquito (Aedes aegypti, AEDSAE); conditions: about 1 day-old larvae, 3 days, room temperature, scored on mortality
Protocol: Example C: Bioassays on Yellow Fever Mosqurro (Aedes aegypti, AEDSAE) (“YFM”)
Certain molecules disclosed in this document were tested against YFM using procedures described in the following paragraph. In the reporting of the results, the “GPA & YFM Rating Table” was used (See Table Section).
Master plates containing 400 μg of a molecule dissolved in 100 μL of dimethyl sulfoxide (DMSO) (equivalent to a 4000 ppm solution) are used. A master plate of assembled molecules contains 15 μL per well. To this plate, 135 μL of a 90:10 water:acetone mixture is added to each well. A robot (Biomek® NXP Laboratory Automation Workstation) is programmed to dispense 15 μL aspirations from the master plate into an empty 96-well shallow plate (“daughter” plate). There are 6 reps (“daughter” plates) created per master. The created daughter plates are then immediately infested with YFM larvae.
The day before plates are to be treated, mosquito eggs are placed in Millipore water containing liver powder to begin hatching (4 g. into 400 mL). After the daughter plates are created using the robot, they are infested with 220 μL of the liver powder/larval mosquito mixture (about 1 day-old larvae). After plates are infested with mosquito larvae, a non-evaporative lid is used to cover the plate to reduce drying. Plates are held at room temperature for 3 days prior to grading. After 3 days, each well is observed and scored based on mortality. The results are indicated in the table entitled “Table ABC: Biological Results” (See Table Section).

[2] = system: Cabbage Looper (Trichoplusia ni, TRIPNI); assay: Bioassay on Cabbage Looper (CL), 128-well diet tray assay; conditions: 168 h, 50 μg/cm^2 on artificial diet, second instar larvae, five to seven days, 25° C., read-out: CL % Control (or Mortality) rating
Procedure, shortened: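 Percent mortality, averaged over eight wells, scored after five to seven days at 25° C. under 14:10 light-dark. Each well held 1–5 second-instar larvae on artificial diet treated with 50 μg/cm^2 test molecule applied in 90:10 acetone-water and dried.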

[3] = system: Beet Armyworm (Spodoptera exigua, LAPHEG); assay: Bioassay on Beet Armyworm (BAW), 128-well diet tray assay; conditions: 168 h, 50 μg/cm^2 on artificial diet, second instar larvae, five to seven days, 25° C., read-out: BAW % Control (or Mortality) rating
Procedure, shortened: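 Mortality of second-instar larvae (one to five per well) was scored after five to seven days at 25 °C under 14:10 light-dark and averaged across eight wells. Each well's diet had received 50 μg/cm^2 test molecule from a 90:10 acetone-water solution, allowed to dry before infestation.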

SMILES | YFM % Control (or Mortality) rating [1] | mortality at 50 µg/cm2 [2] [%] | mortality at 50 µg/cm2 [3] [%]
C[C@H](CS(=O)(=O)CC(F)(F)F)NC(=O)c1ccc(/C(F)=C/C(c2ccc(Cl)c(Cl)c2)C(F)(F)F)cc1C(F)(F)F (stereo partly drawn) [F18, 4-((Z)-3-(3,4-Dichlorophenyl)-1,4,4,4-tetrafluorobut-1-en-1-yl)-N—((R)-1-((2,2,2-trifluoroethyl)sulfonyl)propan-2-yl)-2-(trifluoromethyl)benzamide] | A (80-100) | 50 to 100 | 50 to 100
C[C@H](CSCC(F)(F)F)NC(=O)c1ccc(/C(F)=C/C(c2cc(Cl)cc(Cl)c2)C(F)(F)F)cc1C(F)(F)F (stereo partly drawn) [F19, 4-((Z)-3-(3,5-Dichlorophenyl)-1,4,4,4-tetrafluorobut-1-en-1-yl)-N—((R)-1-((2,2,2-trifluoroethyl)thio)propan-2-yl)-2-(trifluoromethyl)benzamide] | A (80-100) | 50 to 100 | 50 to 100
C[C@H](CSCC(F)(F)F)NC(=O)c1ccc(/C(F)=C/C(c2ccc(Cl)c(Cl)c2)C(F)(F)F)cc1C(F)(F)F (stereo partly drawn) [F20, 4-((Z)-3-(3,4-Dichlorophenyl)-1,4,4,4-tetrafluorobut-1-en-1-yl)-N—((R)-1-((2,2,2-trifluoroethyl)thio)propan-2-yl)-2-(trifluoromethyl)benzamide] | D (No activity noticed in this bioassay) | 50 to 100 | 50 to 100
C[C@H](C[S+]([O-])CC(F)(F)F)NC(=O)c1ccc(/C(F)=C/C(c2cc(Br)c(Cl)c(Br)c2)C(F)(F)F)cc1C(F)(F)F (stereo partly drawn) [F23, 4-((Z)-3-(3,5-Dibromo-4-chlorophenyl)-1,4,4,4-tetrafluorobut-1-en-1-yl)-N-((2R)-1-((2,2,2-trifluoroethyl)sulfinyl)propan-2-yl)-2-(trifluoromethyl)benzamide] | A (80-100) | 50 to 100 | 50 to 100
C[C@H](CS(=O)(=O)CC(F)(F)F)NC(=O)c1ccc(/C(F)=C/C(c2cc(Cl)c(Br)c(Cl)c2)C(F)(F)F)cc1C(F)(F)F (stereo partly drawn) [F25, 4-((Z)-3-(4-Bromo-3,5-dichlorophenyl)-1,4,4,4-tetrafluorobut-1-en-1-yl)-N—((R)-1-((2,2,2-trifluoroethyl)sulfonyl)propan-2-yl)-2-(trifluoromethyl)benzamide] | A (80-100) | 50 to 100 | 50 to 100
C[C@H](C[S+]([O-])CC(F)(F)F)NC(=O)c1ccc(/C(F)=C/C(c2cc(Cl)c(Br)c(Cl)c2)C(F)(F)F)cc1C(F)(F)F (stereo partly drawn) [F26, 4-((Z)-3-(4-Bromo-3,5-dichlorophenyl)-1,4,4,4-tetrafluorobut-1-en-1-yl)-N-((2R)-1-((2,2,2-trifluoroethyl)sulfinyl)propan-2-yl)-2-(trifluoromethyl)benzamide] | A (80-100) | 50 to 100 | 50 to 100
C[C@H](C[S+]([O-])CC(F)(F)F)NC(=O)c1ccc(/C(F)=C/C(c2cc(Cl)cc(Cl)c2)C(F)(F)F)cc1C(F)(F)F (stereo partly drawn) [F27, 4-((Z)-3-(3,5-Dichlorophenyl)-1,4,4,4-tetrafluorobut-1-en-1-yl)-N-((2R)-1-((2,2,2-trifluoroethyl)sulfinyl)propan-2-yl)-2-(trifluoromethyl)benzamide] | A (80-100) | 50 to 100 | 50 to 100
C[C@H](C[S+]([O-])CC(F)(F)F)NC(=O)c1ccc(/C(F)=C/C(c2ccc(Cl)c(Cl)c2)C(F)(F)F)cc1C(F)(F)F (stereo partly drawn) [F28, 4-((Z)-3-(3,4-Dichlorophenyl)-1,4,4,4-tetrafluorobut-1-en-1-yl)-N-((2R)-1-((2,2,2-trifluoroethyl)sulfinyl)propan-2-yl)-2-(trifluoromethyl)benzamide] | B (More than 0-Less than 80) | 50 to 100 | 50 to 100
C[C@H](CS(=O)(=O)CC(F)(F)F)NC(=O)c1ccc(/C(F)=C/C(c2cc(Cl)c(F)c(Cl)c2)C(F)(F)F)cc1C(F)(F)F (stereo partly drawn) [F29, 4-((Z)-3-(3,5-Dichloro-4-fluorophenyl)-1,4,4,4-tetrafluorobut-1-en-1-yl)-N—((R)-1-((2,2,2-trifluoroethyl)sulfonyl)propan-2-yl)-2-(trifluoromethyl)benzamide] | A (80-100) | 50 to 100 | 50 to 100
C[C@H](CSCC(F)(F)F)NC(=O)c1ccc(/C(F)=C/C(c2cc(Br)cc(Br)c2)C(F)(F)F)cc1C(F)(F)F (stereo partly drawn) [F30, 4-((Z)-3-(3,5-Dibromophenyl)-1,4,4,4-tetrafluorobut-1-en-1-yl)-N—((R)-1-((2,2,2-trifluoroethyl)thio)propan-2-yl)-2-(trifluoromethyl)benzamide] | A (80-100) | 50 to 100 | 50 to 100
C[C@H](C[S+]([O-])CC(F)(F)F)NC(=O)c1ccc(/C(F)=C/C(c2cc(Br)cc(Br)c2)C(F)(F)F)cc1C(F)(F)F (stereo partly drawn) [F31, 4-((Z)-3-(3,5-Dibromophenyl)-1,4,4,4-tetrafluorobut-1-en-1-yl)-N-((2R)-1-((2,2,2-trifluoroethyl)sulfinyl)propan-2-yl)-2-(trifluoromethyl)benzamide] | B (More than 0-Less than 80) | 50 to 100 | 50 to 100
C=Cc1c(Cl)cc(C(/C=C(\F)c2ccc(C(=O)N[C@H](C)CSCC(F)(F)F)c(C(F)(F)F)c2)C(F)(F)F)cc1Cl (stereo partly drawn) [F32, 4-((Z)-3-(3,5-Dichloro-4-vinylphenyl)-1,4,4,4-tetrafluorobut-1-en-1-yl)-N—((R)-1-((2,2,2-trifluoroethyl)thio)propan-2-yl)-2-(trifluoromethyl)benzamide] | A (80-100) | 50 to 100 | 50 to 100
C=Cc1c(Cl)cc(C(/C=C(\F)c2ccc(C(=O)N[C@H](C)CS(=O)(=O)CC(F)(F)F)c(C(F)(F)F)c2)C(F)(F)F)cc1Cl (stereo partly drawn) [F33, 4-((Z)-3-(3,5-Dichloro-4-vinylphenyl)-1,4,4,4-tetrafluorobut-1-en-1-yl)-N—((R)-1-((2,2,2-trifluoroethyl)sulfonyl)propan-2-yl)-2-(trifluoromethyl)benzamide] | A (80-100) | 50 to 100 | 50 to 100
C=Cc1c(Cl)cc(C(/C=C(\F)c2ccc(C(=O)N[C@H](C)C[S+]([O-])CC(F)(F)F)c(C(F)(F)F)c2)C(F)(F)F)cc1Cl (stereo partly drawn) [F34, 4-((Z)-3-(3,5-Dichloro-4-vinylphenyl)-1,4,4,4-tetrafluorobut-1-en-1-yl)-N-((2R)-1-((2,2,2-trifluoroethyl)sulfinyl)propan-2-yl)-2-(trifluoromethyl)benzamide] | A (80-100) | 50 to 100 | 50 to 100
Cc1cc(C(/C=C(\F)c2ccc(C(=O)N[C@H](C)CS(=O)(=O)CC(F)(F)F)c(C(F)(F)F)c2)C(F)(F)F)cc(C)c1Cl (stereo partly drawn) [F35, 4-((Z)-3-(4-Chloro-3,5-dimethylphenyl)-1,4,4,4-tetrafluorobut-1-en-1-yl)-N—((R)-1-((2,2,2-trifluoroethyl)sulfonyl)propan-2-yl)-2-(trifluoromethyl)benzamide] | A (80-100) | 50 to 100 | 50 to 100
C[C@H](CSCC(F)(F)F)NC(=O)c1ccc(/C(F)=C/C(c2cc(Cl)c(F)c(Cl)c2)C(F)(F)F)cc1C(F)(F)F (stereo partly drawn) [F36, 4-((Z)-3-(3,5-Dichloro-4-fluorophenyl)-1,4,4,4-tetrafluorobut-1-en-1-yl)-N—((R)-1-((2,2,2-trifluoroethyl)thio)propan-2-yl)-2-(trifluoromethyl)benzamide] | A (80-100) | 50 to 100 | 50 to 100
C[C@H](C[S+]([O-])CC(F)(F)F)NC(=O)c1ccc(/C(F)=C/C(c2cc(Cl)c(F)c(Cl)c2)C(F)(F)F)cc1C(F)(F)F (stereo partly drawn) [F37, 4-((Z)-3-(3,5-Dichloro-4-fluorophenyl)-1,4,4,4-tetrafluorobut-1-en-1-yl)-N-((2R)-1-((2,2,2-trifluoroethyl)sulfinyl)propan-2-yl)-2-(trifluoromethyl)benzamide] | A (80-100) | 50 to 100 | 50 to 100
